In data set [1] the test system is Respiratory syncytial virus recombinant with luciferase (RSV-Luc5). As to the kind of experiment: microbe, parasite or virus in culture. It is filed as cell-based. The settings on record: human respiratory syncytial virus, NHBE, 72 h, read-out: RSV NHBE EC50.
For data set [2], the system named is SARS Coronavirus 2 recombinant with NanoLuc (SARS-CoV2-NLuc). Kind of data set: organism not typed. The settings on record: 48 h. It is filed as cell-based.
A short description of data set [3]: in vitro. It is filed as cell-based. The note with it: human. As to the method:
Cytotoxicity of the compounds was determined in uninfected cells using the cell viability reagent in a similar fashion as described before for other cell types (Cihlar et al., Antimicrob Agents Chemother. 2008, 52(2):655-65). HEp-2 (1.5×10^3 cells/well) and MT-4 (2×10^3 cells/well) cells were plated in 384-well plates and incubated with the appropriate medium containing 3-fold serially diluted compound ranging from 15 nM to 100,000 nM. Cells were cultured for 4-5 days at 37° C. Following the incubation, the cells were allowed to equilibrate to 25° C., and cell viability was determined by adding Cell-Titer Glo viability reagent. The mixture was incubated for 10 min, and the luminescence signal was quantified using an Envision plate reader. Untreated cell and cells treated at 2 μM puromycin (Sigma, St. Louis, MO) serve as 100% and 0% cell viability control, respectively.

Data set [4] concerns Respiratory syncytial virus recombinant with luciferase (RSV-Luc5). As to the kind of experiment: microbe, parasite or virus in culture. It is filed as cell-based. The note with it: human respiratory syncytial virus, HEp-2, 72 h, read-out: RSV Hep2 EC50.
On the set-up of data set [5]: species or system Sprague-Dawley rats. The note with it: male, Sprague-Dawley, rat, in vivo, po; for Reference Compound A F %: 1 mg/kg; for Cmax / Reference Compound A AUCinf.: 8.1 mg/kg.
Experimental: Ester Reference Compound, Compound 3 and Compound 6 were dosed orally by gavage to male Sprague-Dawley rats (n=3/group); Ester Reference Compound at 6 mg/kg in 2.5% Dimethyl sulfoxide; 10% Kolliphor HS-15; 10% Labrasol; 2.5% Propylene glycol and 75% water, pH 2.5; Compound 3 at 6.65 mg/kg in 10% Dimethyl sulfoxide; 40% Kolliphor HS-15; 40% Labrasol and 10% Propylene glycol and Compound 6 at 8.1 mg/kg in 2.5% Dimethyl sulfoxide; 10% Kolliphor HS-15; 10% Labrasol; 2.5% Propylene glycol and 75% water, pH 2.8. Blood samples were collected into pre-chilled collection tubes containing K2EDTA and processed to plasma at 10 time points over a span of pre-dose to 24 h post-administration. Plasma samples were subject to protein precipitation with a 12.5-fold volume of methanol, vortexed and centrifuged. Supernatants were transferred and evaporated to dryness under nitrogen and reconstituted with 5% acetonitrile in water. Separation was achieved on a Phenomenex Synergi Polar-RP column, a mobile phase A of 10 mM ammonium formate with 0.1% formic acid in water and a mobile phase B of 0.1% formic acid in acetonitrile with a step-wise linear gradient from 5 to 95% mobile phase B. An LC-MS/MS method was used to measure the concentrations of the Reference Compound A and either Ester Reference Compound, Compound 3 or Compound 6 in plasma.

Where two headings read alike, the source gives them in different places.

This note sets out measurements from patent publication US20230322813A1, “COMPOUNDS AND METHODS FOR TREATMENT OF VIRAL INFECTIONS” (Gilead Sciences, Inc., priority 2022, published 2023).

What is called EC50 is the concentration giving half of the maximal effect. In general, CC50 refers to the concentration giving 50% cytotoxicity. A higher CC50 goes with lower toxicity to the cells. For `CCCCCCCC(=O)Nc1ncnn2c([C@]3(C#N)O[C@H](COC(=O)C(C)C)[C@@H](O)[C@H]3O)ccc12` [Compound 11, ((2R,3S,4R,5R)-5-cyano-3,4-dihydroxy-5-(4-octanamidopyrrolo[2,1-f][1,2,4]triazin-7-yl)tetrahydrofuran-2-yl)methyl isobutyrate], the EC50 was found to be 188 nM in data set [1] and 935 nM in data set [2]. The same molecule had a CC50 in data set [3] of 42400 nM.

On to `COC1O[C@H]2[C@@H](O1)[C@](C#N)(c1ccc3c(N)ncnn13)O[C@@H]2COC(=O)C(C)C` (stereo partly drawn) [Compound 4, ((3aR,4R,6R,6aR)-6-(4-aminopyrrolo[2,1-f][1,2,4]triazin-7-yl)-6-cyano-2-methoxytetrahydrofuro[3,4-d][1,3]dioxol-4-yl)methyl isobutyrate], for which, in data set [2], the EC50 is above 50000 nM. Besides, in data set [3], the CC50 was above 5000 nM.

For the molecule `CC(C)C(=O)OC[C@H]1O[C@@](C#N)(c2ccc3c(=N)n(COP(=O)(O)OCc4ccccc4)cnn23)[C@H](O)[C@@H]1O` [Compound 5, ((2R,3S,4R,5R)-5-(3-((((benzyloxy)(hydroxy)phosphoryl)oxy)methyl)-4-imino-3,4-dihydropyrrolo[2,1-f][1,2,4]triazin-7-yl)-5-cyano-3,4-dihydroxytetrahydrofuran-2-yl)methyl isobutyrate], in data set [2], the EC50 is above 50000 nM. Also, the CC50 in data set [3] is above 50000 nM.

On to `CCCCCC(=O)Nc1ncnn2c([C@]3(C#N)O[C@H](COC(=O)C(C)C)[C@@H](O)[C@H]3O)ccc12` [Compound 10, ((2R,3S,4R,5R)-5-cyano-5-(4-hexanamidopyrrolo[2,1-f][1,2,4]triazin-7-yl)-3,4-dihydroxytetrahydrofuran-2-yl)methyl isobutyrate], for which the EC50 in data set [2] worked out at 1220 nM. Further, the CC50 in data set [3] is above 50000 nM.

As for `CCCC(=O)Nc1ncnn2c([C@]3(C#N)O[C@H](COC(C)=O)[C@@H](OC(C)=O)[C@H]3OC(C)=O)ccc12` [Compound 8, (2R,3R,4R,5R)-5-(acetoxymethyl)-2-(4-butyramidopyrrolo[2,1-f][1,2,4]triazin-7-yl)-2-cyanotetrahydrofuran-3,4-diyl diacetate], the results for the EC50 in data set [1] and in data set [2] were 405 nM and 3140 nM, respectively.

As to `CC(=O)Nc1ncnn2c([C@]3(C#N)O[C@H](COC(C)=O)[C@@H](OC(C)=O)[C@H]3OC(C)=O)ccc12` [Compound 7, (2R,3R,4R,5R)-2-(4-acetamidopyrrolo[2,1-f][1,2,4]triazin-7-yl)-5-(acetoxymethyl)-2-cyanotetrahydrofuran-3,4-diyl diacetate], the EC50 came out at 932 nM in data set [1] and 5540 nM in data set [2].

One may read the Cmax as the highest concentration seen after dosing. Take `CC(C)C(=O)OC[C@H]1O[C@@](C#N)(c2ccc3c(N)ncnn23)[C@@H]2OC(=O)O[C@@H]21` [Compound 3, ((3aR,4R,6R,6aR)-6-(4-aminopyrrolo[2,1-f][1,2,4]triazin-7-yl)-6-cyano-2-oxotetrahydrofuro[3,4-d][1,3]dioxol-4-yl)methyl isobutyrate]: the EC50 in data set [1] stood at 512 nM. Further, the EC50 in data set [4] was 330 nM. Also, the EC50 in data set [2] stood at 1750 nM. Moreover, in data set [3], it took 50000 nM to reach half-maximal cytotoxicity (CC50). Also, in data set [5], the “Reference Compound A F %” value is on record as 84.7%, the peak level (Cmax) was 2280 nM and the “Reference Compound A AUCinf.” value was determined as 10.7 µM·h.

Regarding `CC(C)C(=O)OC[C@H]1O[C@@](C#N)(c2ccc3c(N)ncnn23)[C@H](O)[C@@H]1O` [Ester Reference Compound, reference compound], in data set [5], the Cmax is 2100 nM and the “Reference Compound A AUCinf.” value was determined as 7.57 µM·h.

For the molecule `CC(C)C(=O)OC[C@H]1O[C@@](C#N)(c2ccc3c(=N)n(COP(=O)(O)O)cnn23)[C@H](O)[C@@H]1O` [Compound 6, ((2R,3S,4R,5R)-5-cyano-3,4-dihydroxy-5-(4-imino-3-((phosphonooxy)methyl)-3,4-dihydropyrrolo[2,1-f][1,2,4]triazin-7-yl)tetrahydrofuran-2-yl)methyl isobutyrate], in data set [1], the EC50 came out at 3550 nM. The EC50 in data set [4] amounted to 719 nM. Also, the EC50 in data set [2] came to 3650 nM. The molecule further came in with a CC50 in data set [3] of 50000 nM. In data set [5], the “Reference Compound A F %” value is listed as 54.4%, the concentration peaked (Cmax) at 3080 nM and the “Reference Compound A AUCinf.” value came out at 6.86 µM·h.

With `CCCC(=O)Nc1ncnn2c([C@]3(C#N)O[C@H](COC(=O)C(C)C)[C@@H](O)[C@H]3O)ccc12` [Compound 9, ((2R,3S,4R,5R)-5-(4-butyramidopyrrolo[2,1-f][1,2,4]triazin-7-yl)-5-cyano-3,4-dihydroxytetrahydrofuran-2-yl)methyl isobutyrate], the figures for the EC50 in data set [4] and in data set [2] were 529 nM and 1950 nM, respectively. In addition, the CC50 in data set [3] is above 50000 nM.
